This note sets out measurements from ChEMBL document CHEMBL1137908, “Synthesis and antibacterial activity of novel 6-fluoro-1-[(1R,2S)-2-fluorocyclopropan-1-yl]-4-oxoquinoline-3-carboxylic acids bearing cyclopropane-fused 2-amino-8-azabicyclo[4.3.0]nonan-8-yl substituents at the C-7 position” (Bioorg Med Chem Lett, 2004).

In brackets after ≈: the same amount, converted by molar mass. A value given as a limit tells only on which side of the number the result lay.

Assay [1] deals with Staphylococcus epidermidis. Nature of the assay: Antibacterial activity against Staphylococcus epidermidis 56500 was determined. The class given is functional.
The test system of the next assay is Klebsiella pneumoniae. The assay can be described thus: Antibacterial activity against Klebsiella pneumoniae type II was determined. The class given is functional.
The next assay has as its system Streptococcus mitis. The assay can be described thus: Antibacterial activity against Streptococcus mitis IID685 was determined. The class given is functional.
The subject of another assay is Streptococcus pyogenes. Nature of the assay: Antibacterial activity against Streptococcus pyogenes G-36 was determined. The class given is functional.
Another assay deals with Escherichia coli. Nature of the assay: Antibacterial activity against Escherichia coli NIHJ was determined. It is filed as functional.
A further assay deals with Enterococcus faecalis. The assay can be described thus: Antibacterial activity against Enterococcus faecalis ATCC 19433 was determined. The class given is functional.
Assay [2] relates to Staphylococcus aureus. The assay can be described thus: Antibacterial activity against Staphylococcus aureus FDA 209P was determined. The class given is functional.
Assay [3] concerns Staphylococcus aureus. Nature of the assay: Antibacterial activity against methicillin-resistant Staphylococcus aureus (MRSA) 870307 was determined. It is filed as functional.
Another assay concerns Streptococcus pneumoniae. The assay can be described thus: Antibacterial activity against Penicillin-resistant Streptococcus pneumoniae (PRSP) J-24 was determined. The class given is functional.
Assay [4] can be described thus: Ratio of binding to human DNA topoisomerase II and Staphylococcus aureus DNA topoisomerase IV.
The next assay has as its target DNA topoisomerase II (Homo sapiens, UniProt P11388+Q02880). The assay can be described thus: Inhibitory concentration against human DNA topoisomerase II. It is filed as protein assay.
Assay [5] has as its target T1, DNA topoisomerase 4 subunit A (Staphylococcus aureus subsp. aureus Mu50, UniProt Q931S2).
T1 sequence (Q931S2 whole entry): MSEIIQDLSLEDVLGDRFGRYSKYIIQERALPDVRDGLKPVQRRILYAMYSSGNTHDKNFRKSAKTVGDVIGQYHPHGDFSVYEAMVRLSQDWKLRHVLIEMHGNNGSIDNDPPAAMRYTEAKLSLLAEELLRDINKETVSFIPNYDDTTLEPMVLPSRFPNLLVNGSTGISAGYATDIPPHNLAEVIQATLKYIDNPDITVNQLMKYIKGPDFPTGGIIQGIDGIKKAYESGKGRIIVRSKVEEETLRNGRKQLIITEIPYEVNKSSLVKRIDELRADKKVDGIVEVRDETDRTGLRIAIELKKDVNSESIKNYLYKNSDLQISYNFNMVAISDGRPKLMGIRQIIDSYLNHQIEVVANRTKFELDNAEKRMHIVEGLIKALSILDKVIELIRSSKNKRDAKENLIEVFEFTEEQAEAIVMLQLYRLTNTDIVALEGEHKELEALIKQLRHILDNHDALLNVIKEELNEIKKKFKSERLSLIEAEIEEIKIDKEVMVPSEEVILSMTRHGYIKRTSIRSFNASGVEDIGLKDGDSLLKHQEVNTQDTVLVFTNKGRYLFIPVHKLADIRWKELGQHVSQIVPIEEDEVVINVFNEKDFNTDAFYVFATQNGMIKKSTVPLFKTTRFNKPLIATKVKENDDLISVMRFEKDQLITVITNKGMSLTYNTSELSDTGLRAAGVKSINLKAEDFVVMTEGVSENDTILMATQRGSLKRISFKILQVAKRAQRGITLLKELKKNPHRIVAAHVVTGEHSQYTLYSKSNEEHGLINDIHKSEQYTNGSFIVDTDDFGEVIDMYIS
The assay can be described thus: Inhibitory concentration against Staphylococcus aureus DNA topoisomerase IV.

Where [6] appears, read: Staphylococcus epidermidis, read-out: MIC.
Setting [7] is: Klebsiella pneumoniae, read-out: MIC.
[8] abbreviates: Streptococcus mitis, read-out: MIC.
Setting [9] is: Streptococcus pyogenes, read-out: MIC.
The mark [10] stands for this setting: Escherichia coli, read-out: MIC.
Where [11] appears, read: Enterococcus faecalis, ATCC 19433, read-out: MIC.
The mark [12] stands for this setting: Staphylococcus aureus, read-out: MIC.
Setting [13] is: Streptococcus pneumoniae, read-out: MIC.

For orientation: MIC means the lowest concentration found to suppress growth. On to `Nc1c(F)c(N2C[C@H]3CCC[C@@H](N)[C@H]3C2)c(F)c2c1c(=O)c(C(=O)O)cn2[C@@H]1C[C@@H]1F` (stereo in doubt; 29 (-)), for which the MIC was determined as 0.2 µg/mL (≈ 0.458 µM) in assay [1]; 0.39 µg/mL (≈ 0.894 µM) against Klebsiella pneumoniae; 0.1 µg/mL (≈ 0.229 µM) in the assay with Streptococcus mitis; 0.1 µg/mL (≈ 0.229 µM) with Streptococcus pyogenes; 0.1 µg/mL (≈ 0.229 µM) in the assay with Escherichia coli; 0.78 µg/mL (≈ 1.79 µM) against Enterococcus faecalis. The MIC was 0.02 µg/mL (≈ 0.0458 µM) against Staphylococcus aureus [2], 0.78 µg/mL (≈ 1.79 µM) with Staphylococcus aureus [3] and 0.1 µg/mL (≈ 0.229 µM) with Streptococcus pneumoniae.
As to `Nc1c(F)c(N2C[C@H]3CC[C@H]4C[C@@]4(N)[C@H]3C2)c(F)c2c1c(=O)c(C(=O)O)cn2[C@@H]1C[C@@H]1F` (stereo in doubt; 13 (+)), the Selectivity in assay [4] amounted to 71.3.
For the compound `COc1c(N2C[C@@H]3CCCN[C@@H]3C2)c(F)cc2c(=O)c(C(=O)O)cn(C3CC3)c12` [MOXIFLOXACIN], the MIC came out at 0.1 µg/mL (≈ 0.249 µM) in assay [1] (setting [6]); 0.05 µg/mL (≈ 0.125 µM) in the assay with Klebsiella pneumoniae (setting [7]); 0.1 µg/mL (≈ 0.249 µM) in the assay with Streptococcus mitis (setting [8]); 0.2 µg/mL (≈ 0.498 µM) in the assay with Streptococcus pyogenes (setting [9]); 0.006 µg/mL (≈ 0.0149 µM) in the assay with Escherichia coli (setting [10]); 0.2 µg/mL (≈ 0.498 µM) in the assay on Enterococcus faecalis (setting [11]). Moreover, the figures for the MIC with Staphylococcus aureus [2] (setting [12]), in the assay with Staphylococcus aureus [3] (setting [12]) and with Streptococcus pneumoniae (setting [13]) were 0.02 µg/mL (≈ 0.0498 µM), 0.78 µg/mL (≈ 1.94 µM) and 0.02 µg/mL (≈ 0.0498 µM), respectively.
On to `CC(=O)NC[C@H]1CN(c2ccc(N3CCOCC3)c(F)c2)C(=O)O1` [LINEZOLID], for which the minimum inhibitory concentration (MIC) in assay [1] (setting [6]) was 1.56 µg/mL (≈ 4.62 µM); in the assay with Klebsiella pneumoniae (setting [7]) it was greater than 6.25 µg/mL; in the assay with Streptococcus mitis (setting [8]), 1.56 µg/mL (≈ 4.62 µM); in the assay with Streptococcus pyogenes (setting [9]) it was 3.13 µg/mL (≈ 9.28 µM); with Escherichia coli (setting [10]), 6.25 µg/mL (≈ 18.5 µM); in the assay on Enterococcus faecalis (setting [11]) it was 3.13 µg/mL (≈ 9.28 µM). Further, the figures for the MIC in the assay with Staphylococcus aureus [2] (setting [12]), in the assay with Staphylococcus aureus [3] (setting [12]) and in the assay with Streptococcus pneumoniae (setting [13]) were 0.78 µg/mL (≈ 2.31 µM), 1.56 µg/mL (≈ 4.62 µM) and 0.78 µg/mL (≈ 2.31 µM), respectively.
Broadly, the IC50 is the concentration needed to halve the response being measured. Low values mean higher potency, high ones lower potency. `Nc1c(F)c(N2C[C@H]3CCC[C@@H](N)[C@H]3C2)c(F)c2c1c(=O)c(C(=O)O)cn2[C@@H]1C[C@@H]1F` (stereo in doubt; 28 (+)): the IC50 at DNA topoisomerase II is 7 µg/mL (≈ 16 µM); in [5] it was 412 nM. Moreover, the MIC entry is “<=0.003 ug ml-1” in [1]; 0.01 µg/mL (≈ 0.0229 µM) in the assay with Klebsiella pneumoniae; “<=0.003 ug ml-1” against Streptococcus mitis; “<=0.003 ug ml-1” in the assay on Streptococcus pyogenes; “<=0.003 ug ml-1” against Escherichia coli; 0.02 µg/mL (≈ 0.0458 µM) against Enterococcus faecalis. In addition, the MIC result was “<=0.003 ug ml-1” in the assay on Staphylococcus aureus [2], 0.006 µg/mL (≈ 0.0137 µM) in the assay on Staphylococcus aureus [3] and “<=0.003 ug ml-1” with Streptococcus pneumoniae.
As for `Nc1c(F)c(N2C[C@H]3CC[C@H]4C[C@@]4(N)[C@H]3C2)c(F)c2c1c(=O)c(C(=O)O)cn2[C@@H]1C[C@@H]1F` (stereo in doubt; 14 (-)), the MIC in assay [1] amounted to 0.02 µg/mL (≈ 0.0446 µM); in the assay with Klebsiella pneumoniae it was 0.05 µg/mL (≈ 0.111 µM); in the assay with Streptococcus mitis, 0.02 µg/mL (≈ 0.0446 µM); in the assay on Streptococcus pyogenes, 0.05 µg/mL (≈ 0.111 µM); against Escherichia coli it was 0.006 µg/mL (≈ 0.0134 µM); against Enterococcus faecalis it was 0.2 µg/mL (≈ 0.446 µM). The MIC in the assay on Staphylococcus aureus [3] came out at 0.2 µg/mL (≈ 0.446 µM); in the assay on Streptococcus pneumoniae it was 0.02 µg/mL (≈ 0.0446 µM).
For the compound `Nc1c(F)c(N2C[C@H]3C[C@@H]4C[C@@H]4[C@H](N)[C@H]3C2)c(F)c2c1c(=O)c(C(=O)O)cn2[C@@H]1C[C@@H]1F` (stereo in doubt; 26 (+)), the IC50 against DNA topoisomerase II is 6.65 µg/mL (≈ 14.8 µM); in assay [5], 847 nM. Besides, the MIC was no more than 0.003 µg/mL in [1] (setting [6]); 0.01 µg/mL (≈ 0.0223 µM) in the assay on Klebsiella pneumoniae (setting [7]); no more than 0.003 µg/mL with Streptococcus mitis (setting [8]); 0.006 µg/mL (≈ 0.0134 µM) with Streptococcus pyogenes (setting [9]); no more than 0.003 µg/mL with Escherichia coli (setting [10]); 0.02 µg/mL (≈ 0.0446 µM) in the assay with Enterococcus faecalis (setting [11]). The MIC was no more than 0.003 µg/mL in the assay on Staphylococcus aureus [2] (setting [12]), 0.02 µg/mL (≈ 0.0446 µM) in the assay on Staphylococcus aureus [3] and no more than 0.003 µg/mL with Streptococcus pneumoniae (setting [13]).
`CN[C@H](CC(C)C)C(=O)N[C@H]1C(=O)N[C@@H](CC(N)=O)C(=O)N[C@H]2C(=O)N[C@H]3C(=O)N[C@H](C(=O)N[C@H](C(=O)O)c4cc(O)cc(O)c4-c4cc3ccc4O)[C@H](O)c3ccc(c(Cl)c3)Oc3cc2cc(c3O[C@@H]2O[C@H](CO)[C@@H](O)[C@H](O)[C@H]2O[C@H]2C[C@](C)(N)[C@H](O)[C@H](C)O2)Oc2ccc(cc2Cl)[C@H]1O` [VANCOMYCIN]: the MIC with Klebsiella pneumoniae (setting [7]) is greater than 6.25 µg/mL; with Streptococcus mitis (setting [8]) it was 0.39 µg/mL (≈ 0.269 µM); in the assay on Streptococcus pyogenes (setting [9]), 0.39 µg/mL (≈ 0.269 µM); in the assay with Escherichia coli (setting [10]), greater than 6.25 µg/mL; in the assay on Enterococcus faecalis (setting [11]), 0.39 µg/mL (≈ 0.269 µM); with Staphylococcus aureus [2] (setting [12]), 0.2 µg/mL (≈ 0.138 µM). Besides, the figures for the MIC with Staphylococcus aureus [3] (setting [12]) and with Streptococcus pneumoniae (setting [13]) were 0.39 µg/mL (≈ 0.269 µM) and 0.2 µg/mL (≈ 0.138 µM), respectively.
